The values below come from patent US20240115549A1, “TREATMENT OF MENTAL DISORDERS” (GH Research Ireland Limited, priority 2022, published 2024).

This series relates to Salmonella typhimurium TA98, TA100, TA1535 and TA1537. In words: Bacterial mutation test, Salmonella typhimurium. Type of series: cell-based. Particulars: up to 5000 μg/plate, with and without S-9. An excerpt:
These conditions included treatments at concentrations up to […] (the maximum recommended concentration according to current regulatory guidelines), in the absence and in the presence of a rat liver metabolic activation system (S-9).

Molecules are shown by their SMILES.

For the compound `COc1ccc2[nH]cc(CCN(C)C)c2c1` [5-MeO-DMT], the Induction of mutation result is reported as “did not induce mutation”.
